The test deals with MDA-MB-468 breast. As to the kind of experiment: DTP human tumour cell line panel, 48 h.

Molecules are shown by their SMILES.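 1) Cells in 96-well plates. 2) Compound, 48 h, 5 concentrations. 3) Linear interpolation between surrounding doses. 4) Unreached endpoint = highest concentration. GI50 is the concentration that inhibits growth by half. TGI marks complete inhibition of growth.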 Some results are limits rather than exact numbers.

One may read the GI50 as the concentration at which growth is held to half of that of the control. Usually TGI stands for the concentration giving total growth inhibition. Higher therefore signals lower sensitivity of the cells. `NC(=O)c1ccccc1Nc1ccc2nnc(-c3ccncc3)n2n1`: the GI50 is 1.98 µM and the TGI worked out at 7.32 µM.

For `O=c1ccn(C2CC(O)C(CO)O2)c(=O)[nH]1` (stereo not drawn), the GI50 was > 5000 µM and the TGI was > 5000 µM.

Take `O=C1C(N2CC2)=C(N2CC2)C(=O)C(N2CC2)=C1N1CC1`: the GI50 is 0.395 µM and the TGI was 2.44 µM.

As for `COc1cc(Nc2c(C#N)cnc3cc(OCCCN4CCN(C)CC4)c(OC)cc23)c(Cl)cc1Cl`, the GI50 is 1.63 µM and the TGI is 4.14 µM.

`Cc1ccc(-c2nc(C#N)c(S(=O)(=O)n3nc(C)cc3N)o2)cc1`: the GI50 was 2.72 µM and the TGI was 7.96 µM.

As to `O=C(Nc1cccc(-n2cc(-c3ccncc3)c(-c3ccc(Cl)c(O)c3)n2)c1)c1ccc(N2CCOCC2)c(C(F)(F)F)c1`, the GI50 is 7.04 µM and the TGI worked out at 26.6 µM.

As to `COc1cccc(-c2nn(-c3ccccc3)cc2-c2ccnc(NCCCNC(=O)Nc3ccc(Cl)c(Cl)c3)c2)c1`, the GI50 was 1.92 µM and the TGI was found to be 4.34 µM.

With `CC1(N)CCN(c2cccnc2NC(=O)c2nc(-c3ncccc3C(F)(F)F)cnc2N)CC1`, the GI50 was 14.1 µM and the TGI came out at 52.8 µM.

For the compound `CN1CCN(CCOc2ccc(-c3cnc4c(-c5ccc(C(F)(F)F)cc5)cnn4c3)cc2)CC1`, the GI50 was 1.36 µM and the TGI turned out to be 2.95 µM.

Consider `Cc1cc(Cl)cc(NS(=O)(=O)c2ccc(-c3cnc(C4CC4)o3)cc2)c1`, for which the GI50 is 0.12 µM and the TGI stood at 4.44 µM.

Consider `C[C@]12CCc3sc(NCCc4ccccc4)nc3C1=CC[C@@H]1[C@@H]2CC[C@]2(C)C(=O)CC[C@@H]12`, for which the GI50 is 2.99 µM and the TGI worked out at 10.3 µM.

With `CNCCCn1c2c(c3ccc([N+](=O)[O-])cc3c1=O)C(=O)c1cc(OC)cnc1-2`, the GI50 is 0.0335 µM and the TGI worked out at 0.189 µM.

Turning to `Cc1cc(C(=C2C=CC(=Nc3ccccc3)C=C2)c2ccc(Nc3ccccc3)cc2)ccc1N`, the concentration for 50% growth inhibition (GI50) was 0.332 µM and the TGI is 1.29 µM.

With `CCOC(=O)c1cc2c(n1Cc1cccc(OC)c1)-c1oncc1CCC2`, the GI50 is 0.732 µM and the TGI is > 82.8 µM.

As to `CCC1CN2C(=N1)c1ccccc1-c1cc(Cl)ccc12` (stereo not drawn), the GI50 was 2.16 µM and the TGI was determined as 6.85 µM.

On to `COc1cccc2c1ccc1nc3cccc(C(=O)N[C@H](C)CN(C)C)c3nc12`, for which the GI50 was 0.12 µM and the TGI turned out to be 0.485 µM.

For `CCCc1cc(=O)[nH]c(-n2nc(C)cc2C)n1`, the GI50 was 4.77 µM and the TGI is > 100 µM.

`CCC(C)[C@H]1O[C@]2(C=C[C@@H]1C)C[C@@H]1C[C@@H](C/C=C(\C)[C@@H](OC3C[C@H](OC)C(O[C@H]4C[C@H](OC)[C@@H](O)[C@H](C)O4)[C@H](C)O3)[C@@H](C)/C=C/C=C3\CO[C@@H]4[C@H](O)C(C)=C[C@@H](C(=O)O1)[C@]34O)O2` (stereo partly drawn): the GI50 is 1.03 µM and the TGI is 4.14 µM.

As to `CC(=O)C(=Cc1ccc(C=C(C(C)=O)C(C)=O)cc1)C(C)=O`, the GI50 was 1.51 µM and the TGI turned out to be 3.14 µM.

On to `COc1cc2c(cc1O)CC[C@@H]1[C@@H]2CC[C@]2(C)[C@@H](OCCN(C)C)CC[C@@H]12`, for which the GI50 is 0.154 µM and the TGI was 0.531 µM.

For `CCn1cc(C(=O)N/N=C/c2ccccc2)c(=O)c2cc(F)c(N3CCNC(C)C3)c(F)c21` (stereo not drawn), the GI50 is 1.62 µM and the TGI amounted to 3.12 µM.

Consider `CN[C@H](C#Cc1c(F)ccc2c1/C(=C/c1[nH]ccc1OC)C(=O)N2)CO`, for which the GI50 was 0.476 µM and the TGI came to 1.45 µM.

For the compound `CC1OC(n2c3ccccc3c3c4c(c5c6ccccc6[nH]c5c32)C(=O)N(CCN[C@@H]2CCC[C@H]2N)C4=O)CC(O)C1O` (stereo partly drawn), the GI50 was 1.15 µM and the TGI worked out at 3 µM.

For `CN(C)C(=S)/N=c1\ssc(=S)n1Cc1cccnc1`, the GI50 is 3.07 µM and the TGI is > 100 µM.

On to `O=C1c2cccc(NCCN=Cc3cc([N+](=O)[O-])ccc3O)c2C(=O)c2c(NCCN=Cc3cc([N+](=O)[O-])ccc3O)cccc21`, for which the GI50 was 1.86 µM and the TGI turned out to be 20.1 µM.

On to `CN(C)c1ccc(-c2cc(-c3c[nH]c4ccccc34)nc(N)c2C#N)cc1`, for which the GI50 was 1.97 µM and the TGI was 9.22 µM.

On to `O=C(Nc1ccncc1)C(=O)c1cn(Cc2ccc(Cl)cc2)c2ccccc12`, for which the GI50 is 0.0271 µM and the TGI came out at 0.346 µM.

With `COc1ccc(-c2cc(-c3cccc4ccccc34)n3c(n2)nc2ccccc23)cc1OC`, the GI50 is 2.7 µM and the TGI was > 100 µM.

In the case of `COc1ccc(C(=O)/C=C/c2cccc([N+](=O)[O-])c2)c(OC)c1`, the GI50 was 1.09 µM and the TGI worked out at 3 µM.

Regarding `Nc1nc(N)c2nc(CNc3ccc(C(=O)NC(CC(=O)O)C(=O)O)cc3)cnc2n1` (stereo not drawn), the GI50 was 1.37 µM and the TGI is > 100 µM.

As for `C=C1/C(=C\C=C2/CCC[C@]3(C)[C@@H]([C@H](C)CCCC(C)(C)O)CC[C@@H]23)C[C@@H](OC(=O)CBr)C[C@@H]1O`, the GI50 is 2.56 µM and the concentration for total growth inhibition (TGI) was found to be 7.74 µM.

With `O=C(Nc1cccc(-n2cc(-c3ccncc3)c(-c3cc(O)cc(Cl)c3)n2)c1)Nc1ccc(Cl)c(C(F)(F)F)c1`, the GI50 was 2.08 µM and the TGI came out at 8.42 µM.

Consider `c1csc(-c2cn3nc(-c4c[nH]c5ccccc45)sc3n2)c1`, for which the GI50 was 2.92 µM and the TGI amounted to 27.8 µM.

On to `CCCNC(=O)CCC(C)C1CCC2C3C(C[C@H](OC(C)=O)[C@]12C)[C@@]1(C)CCC2(C[C@H]1C[C@H]3OC(C)=O)OOC1(CC[C@]3(C)C4C[C@H](OC(C)=O)[C@]5(C)C(C(C)CCC(=O)NCCC)CCC5C4[C@H](OC(C)=O)C[C@@H]3C1)OO2` (stereo partly drawn), for which the GI50 is 24.9 µM and the TGI is > 100 µM.

In the case of `COc1ccc(C2CC(C)(O)Oc3cc4c(cc32)OCO4)cc1` (stereo not drawn), the GI50 was 18.9 µM and the TGI worked out at 55.7 µM.

For `Cc1cc(NCCN(C(C)C)C(C)C)nc(/N=C(\N)Nc2ccc(Cl)c(C(F)(F)F)c2)n1`, the GI50 is 0.229 µM and the TGI came out at 0.595 µM.

Take `COc1ccc(-c2nc(-c3ccccc3)c(-c3ccccc3)[nH]2)cc1OC1CCCC1`: the GI50 was > 100 µM and the TGI was > 100 µM.

With `CN(C)C(=S)/N=c1\ssc(=S)n1Cc1ccccc1`, the GI50 was 0.5 µM and the TGI was determined as 35.2 µM.

On to `COc1cccc(-n2nc(C)c3c(N/N=C(\C)c4ccncc4)ncnc32)c1`, for which the GI50 is 2.67 µM and the TGI is > 25 µM.

As to `COC(=O)[C@@]12OC[C@]34[C@H]([C@@H](O)[C@@H]1O)[C@@]1(C)[C@H](O)C(=O)C=C(C)[C@@H]1C[C@H]3OC(=O)C(OC(C)=O)[C@@H]24` (stereo partly drawn), the GI50 is 0.0208 µM and the TGI worked out at 0.0624 µM.

`CNC(=O)c1cccc2cc(Oc3ccnc4cc(OCC5(N)CC5)c(OC)cc34)ccc12`: the GI50 was 7.41 µM and the TGI amounted to 22.6 µM.

As to `NC(=O)c1ccc(I)c(N=O)c1`, the GI50 was 21.3 µM and the TGI worked out at 61.3 µM.

`COc1cccc(C2=C(c3c(C)n(C)c4ccccc34)C(=O)NC2=O)c1`: the GI50 was 7.67 µM and the TGI is > 25 µM.

On to `O=C1NC(=C(Cl)Cl)/C(=N/S(=O)(=O)N2CCCCC2CC2(C(F)(F)F)N=N2)N1` (stereo not drawn), for which the GI50 was 1.16 µM and the TGI turned out to be 3.91 µM.

For the origin of these results see PubChem BioAssay (NCI).
